Test results published in patent US20260325473A1, “N-Beta-Hydroxybutyryl-Amino Acids and Related Compositions and Methods” (The Board of Trustees of the Leland Stanford Junior …, priority 2023, published 2026).

How the values were obtained:
CNDP2 [1] = target: T1, CNDP2 (Mus musculus, UniProt Q9D1A2); assay: In vitro synthase (condensation) activity, lysates of CNDP2-transfected HEK293T cells; type: biochemical; design: expressed in transfected cells; host or cells: HEK293T (lysate); conditions: role: substrate; for amino acid selectivity for the BHB-ylation reaction: amino acid 20 mM with BHB 20 mM
T1 sequence (Q9D1A2 1-475): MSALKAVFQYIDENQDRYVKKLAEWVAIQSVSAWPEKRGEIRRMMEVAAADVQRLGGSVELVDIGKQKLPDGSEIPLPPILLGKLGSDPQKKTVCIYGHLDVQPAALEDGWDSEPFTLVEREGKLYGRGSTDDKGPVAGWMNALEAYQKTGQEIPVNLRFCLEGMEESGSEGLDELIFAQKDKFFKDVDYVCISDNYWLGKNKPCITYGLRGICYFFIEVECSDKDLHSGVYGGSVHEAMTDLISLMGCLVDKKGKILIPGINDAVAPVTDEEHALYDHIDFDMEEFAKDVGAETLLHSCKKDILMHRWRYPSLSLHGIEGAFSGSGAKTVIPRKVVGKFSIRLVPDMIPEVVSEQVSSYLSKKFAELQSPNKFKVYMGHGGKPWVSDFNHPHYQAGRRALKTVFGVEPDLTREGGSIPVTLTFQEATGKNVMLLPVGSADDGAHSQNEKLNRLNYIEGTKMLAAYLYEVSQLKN
Experimental: In vitro enzyme activity assays. HEK293T cells were transfected with GFP, CNDP2 or CNDP2-E166A using PolyFect (Qiagen 301105) according to the manufacturer's instructions. The medium was changed one day post-transfection. After an additional 24 h, the cells were harvested in PBS, lysed by sonication and centrifuged (10 min at 15,000 rpm) to remove debris. Supernatant was collected and protein concentrations were adjusted. The in vitro reactions were conducted in Eppendorf tubes with 100 μL of 1 mg/mL protein and 20 mM substrates for keto amino acid synthase activity assays and. Reactions were incubated for 1 h at 37° C. and 20 μl of 1 M HCl were added to acidify the medium and to protonate keto amino acids. Reactions were vortexed and 400 μL of ethyl acetate were added to each reaction. Reactions were vortexed for 30 s to extract keto amino acids into the organic layer and centrifuged at 4° C. for 10 min at 15,000 r.p.m. A total of 300 μl from the top layer was transferred to a new Eppendorf tube and dried down under a stream of nitrogen. The residue was re-suspended in 150 μl of an 2:1:1 mixture of acetonitrile: methanol: water. The mixture was centrifuged at 4° C. for 10 min at 15,000 r.p.m. and the supernatant was transferred to a LC-MS vial.

DIO mice = assay: Chronic administration in DIO mice: body weight and food intake; type: in vivo, mouse; conditions: for body weight, head-to-head keto amino acids: 5 days, vs vehicle
Experimental: General animal information. Animal experiments were performed according to procedure approved by the Stanford University Administrative Panel on Laboratory Animal Care (APLAC). Mice were maintained in 12-hr light-dark cycles at 22° C. and ~50% relative humidity and fed a standard irradiated rodent chow diet. Where indicated, high-fat diet (D12492, Research Diets 60% kcal from fat) and ketogenic diet (D06040601, Research Diets, 80% kcal fat/15% kcal protein/5% kcal carbohydrate) was used. Male C57BL/6J (stock no. 000664) and male C57BL/6J DIO mice (stock no. 380050) were purchased from Jackson Laboratory. Male C57BL/6NCrl (stock no. 027) mice were purchased from Charles River Laboratory. Whole body CNDP2-KO mice (catalog number, C57BL/6NCrl-Cndp2em1 (IMPC) Mbp/Mmucd, RRID: MMRRC_043492-UCD) were obtained from the Mutant Mouse Regional Resource Center, a NCRR-NIH funded strain repository. For in vivo injection of mice with metabolites, compounds were dissolved in 18:1:1 (by volume) of saline/Kolliphor EL (Sigma Aldrich)/DMSO. Compounds were administered to mice daily via intraperitoneal injections at 5 μl/g body weight at the indicated doses. For all injection experiments, mice were mock injected with the vehicle for 3-5 days until body weights have stabilized. Sample sizes were determined on the basis of previous experiments using similar methodologies. For metabolite administration experiments, mice were randomly assigned to treatment groups. Experimenters were not blinded to groups.

CNDP2 [2] = target: T1, CNDP2; assay: Tissue enzyme activity, WT or CNDP2-KO mouse tissue lysates; type: biochemical; conditions: role: product, BHB 20 mM + amino acid 20 mM; for synthesis activity in WT kidney and gut: 1 h, 37° C
Experimental: (§1) Tissue enzyme activity assays. Mouse tissues were mixed with cold PBS and homogenized using a Benchmark BeadBlaster Homogenizer at 4 °C. Protein concentrations were adjusted and the resulting crude was filtered through a 0.45-μm filter to remove insoluble materials. The in vitro reactions were conducted in Eppendorf tubes with 200 μg protein and incubation with the corresponding substrates at 37° C. for 1 hour. After that time, 10 μl of HCl and 400 μl of ethyl acetate were added in the BHB and lactate reactions and the samples were vortexed for 30 s. Reactions were centrifuged at 4° C. for 10 min at 15,000 r.p.m. and total of 300 μl from the top layer was transferred to a new Eppendorf tube and dried down under a stream of nitrogen. The residue was re-suspended in 100 μl of an 2:1:1 mixture of acetonitrile: methanol: water. The mixture was centrifuged at 4° C. for 10 min at 15,000 r.p.m. and the supernatant was transferred to a LC-MS vial. For carnosine reactions, the reactions were not acidified and were directly quenched with 300 μl of an 2:1:1 mixture of acetonitrile: methanol: water after the 1 h incubation and vortexed for 30 s. The mixture was centrifuged at 4° C. for 10 min at 15,000 r.p.m. and the supernatant was transferred to a LC-MS vial.

[3] = Human ketone ester supplementation study, plasma metabolites; type: in vivo; conditions: ketone ester drink cohort
Experimental: (§2) Targeted metabolomics. Targeted measurements were performed using an Agilent 6470 triple quadrupole LC-MS instrument. MS analysis was performed using AJS in negative mode. The AJS source parameters were set as follows: the dry gas temperature was set at 250° C. with a gas flow of 12 l/min and the nebulizer pressure at 25 psi; the sheath gas temperature was set to 300° C. with the sheath gas flow set at 12 l/min; and the capillary voltage was set to 3,500 V. Separation of polar metabolites was performed as described above in the ‘Untargeted measurements of metabolites by LC-MS’ section. Multiple reaction monitoring was performed for the indicated metabolites with the listed dwell times, fragmentor voltage, collision energies, cell accelerator voltages and polarities. Quantification of the endogenous metabolite concentrations were performed by generating a standard curve with known concentrations of each metabolite. Metabolite standards were analyzed alongside the plasma samples using the same targeted triple quadrupole LC/MS method. A calibration standard curve generated from the metabolite standard concentrations and total peak areas were used to calculate the concentrations of each endogenous metabolite. The dilution of the plasma during the sample preparation was also taken into account for the quantification.
Human ketone ester supplementation study. Following screening, eligible subjects participated in a randomized, counter-balanced, double-blind, placebo-controlled crossover trial comparing BHB supplementation versus placebo, separated by a minimum of 2 days (ClinicalTrials.gov ID NCT04194450). Pre-menopausal women were tested in the follicular phase (days 3-9). Participants were asked to refrain from structured exercise and alcohol, limit physical activity, and follow a standardized diet (~50% carbohydrate, ~30% fat, ~20% protein) on the day before each trial. After refraining from medication use for 24 hours, participants reported to the Exercise, Metabolism and Inflammation Laboratory at the University of British Columbia-Okanagan in an overnight fasted state. Anthropometric measurements were obtained prior to insertion of an indwelling intravenous catheter into the antecubital vein for repeated blood sampling. Blood was collected into EDTA tubes (BD, 367863) and immediately centrifuged at 2000 rpm for 15 min and the top layer of plasma was aliquoted and frozen at −80 °C. After baseline (0) blood sample collection, the oral BHB supplement or placebo was consumed in liquid form (~30-65 mL). The BHB supplement (H.V.M.N®, USA) in the form of the ketone monoester (R)-3-hydroxybutyl (R)-3-hydroxybutyrate (AG®, TDeltaS, Oxford, UK) contained 0.4 g mL-1 BHB, natural flavoring, and <2% stevia leaf extract. The taste-matched placebo drink contained the same natural flavoring as the ketone supplement, stevia leaf extract, 5 mL of Bittrex stock (0.005 g of denatonium benzoate powder in 40 ml of water) and 1.5 mL of arrowroot stock (2 g of arrowroot powder in 50 ml of water) to match the bitter flavor and viscosity of the ketone monoester. Supplements were dispensed into opaque 80 ml bottles with volume calculated for 0.3 g BHB/kg body weight and labelled either A or B by a third-party researcher. Blinding was maintained until completion of data collection and analyses.

[4] = Keto-Med study, plasma metabolites; type: in vivo; conditions: human; 4 weeks WFKD vs baseline
Experimental: as §2
Keto-Med study. Keto-Med was a single-site, randomized, crossover, interventional trial comparing 2 metabolically distinct diets (well-formulated ketogenic diet, WFKD; and Mediterranean-plus diet, Med-Plus) among individuals with prediabetes and T2DM. Forty participants aged ≥18 years with prediabetes or T2DM followed the WFKD and the Med-Plus for 12 weeks each, in random order. Participants were randomly assigned into 1 of 2 different diet sequences: WFKD for 12 weeks (phase 1) and then the Med-Plus for 12 weeks (phase 2), or the opposite order. Ad libitum intake was advised, and participants were guided to follow 2 sets of dietary guidelines that shared 3 important similarities (incorporating nonstarchy vegetables and avoiding added sugars and refined grains) and 3 important differences (incorporating compared with avoiding legumes, fruits, and whole, intact grains). During the WFKD phase, participants were counseled to sustain nutritional ketosis by limiting carbohydrates to 20-50 g/day and keeping proteins to ~1.5 g/kg ideal body weight/day, with the remaining kcals coming from fats. Participants were also instructed to consume >3 servings/day of nonstarchy vegetables and maintain adequate mineral and fluid intake for the ketogenic state (sodium, 3-5 g/day; potassium, 3-4 g/day). […]

CNDP2 [5] = target: T1, CNDP2; assay: Carnosine hydrolysis (carnosinase activity) in WT or CNDP2-KO mouse tissue lysates; type: biochemical; conditions: role: substrate, 10 mM carnosine
Experimental: as §1

CC(CO)C(=O)O (centres unmarked) [3-HIB, 3-hydroxisobutyric acid]
CNDP2-dependent condensation activity with C4-hydroxycarboxylic acid isomers (CNDP2 [1]; with phenylalanine): not detected

CC(O)CC(=O)N[C@@H](Cc1c[nH]cn1)C(=O)O (some centres unmarked) [BHB-His]
food intake and body weight, related metabolites and dipeptides (DIO mice; 50 mg/kg IP, 9 days): failed to reduce food intake or body weight

CC(C)C[C@H](NC(=O)CC(C)O)C(=O)O (some centres unmarked) [BHB-Leu, N-betahydroxybutyryl-leucine]
BHB-amino acid synthesis activity in CNDP2-KO kidney and gut (CNDP2 [2]): largely abolished | synthesis activity in WT kidney and gut (CNDP2 [2]): highest BHB-amino acid synthesis activity | body weight, head-to-head keto amino acids (DIO mice; 50 mg/kg/day IP): effective in suppressing body weight

CSCC[C@H](NC(=O)CC(C)O)C(=O)O (some centres unmarked) [BHB-Met, N-betahydroxybutyryl-methionine]
BHB-amino acid synthesis activity in CNDP2-KO kidney and gut (CNDP2 [2]): largely abolished | synthesis activity in WT kidney and gut (CNDP2 [2]): highest BHB-amino acid synthesis activity | body weight, head-to-head keto amino acids (DIO mice; 50 mg/kg/day IP): effective in suppressing body weight

C[C@@H](O)CC(=O)N[C@@H](CCC(N)=O)C(=O)O [Keto-Gln]
induction by ketone ester drink [3]: had not been observed to be induced by ketone ester drink | induction of plasma keto amino acids on WFKD [4]: Robust induction

C[C@@H](O)CC(=O)N[C@H](C(=O)O)[C@@H](C)O [Keto-Thr]
induction by ketone ester drink [3]: had not been observed to be induced by ketone ester drink | induction of plasma keto amino acids on WFKD [4]: Robust induction

NCCC(=O)N[C@@H](Cc1cnc[nH]1)C(=O)O [carnosine]
carnosine hydrolysis across tissues (CNDP2 [5]): highest activity in liver and quadriceps and little activity in the kidney, gut, and brain | carnosinase activity, effect of CNDP2 ablation (CNDP2 [5]; CNDP2-KO vs WT): not sensitive to genetic ablation of CNDP2

CC[C@H](C)[C@H](N)C(=O)O [isoleucine]
amino acid selectivity for the BHB-ylation reaction (CNDP2 [1]): CNDP2 catalyzed BHB-ylation

C[C@H](O)C(=O)O [lactate]
product formed with lactate and phenylalanine as only substrates (CNDP2 [1]; lactate alone with 20 mM phenylalanine): exclusive production of Lac-Phe

CC(C)C[C@H](N)C(=O)O [leucine]
amino acid selectivity for the BHB-ylation reaction (CNDP2 [1]): CNDP2 catalyzed BHB-ylation

N[C@@H](Cc1ccccc1)C(=O)O [phenylalanine, reference compound]
amino acid selectivity for the BHB-ylation reaction (CNDP2 [1]): CNDP2 catalyzed BHB-ylation | body weight and food intake, conjugate vs components (DIO mice; 50 mg/kg/day IP, BHB or phenylalanine at the same doses, 9 days): without effect

CC(C)[C@H](N)C(=O)O [valine]
amino acid selectivity for the BHB-ylation reaction (CNDP2 [1]): CNDP2 catalyzed BHB-ylation
